System: Mf
Test: Compatibility of Mf with agrochemicals (CFU in liquid medium)
Type: cell-based, Metschnikowia fructicola
Settings: TBZ 0.02%; Teldor 0.015%; Mitos 0.025%; Rovral 0.02%; Switch 0.01%; Imazalil 0.005%; 0-48 h, FIG. 8
Description: In order to establish that Mf is suitable for combination with a variety of commonly employed chemical pesticides, ten percent strength of liquid medium (NYDB) with various concentrations of common agrochemicals added was inoculated with a cell suspension of Mf (25 ml of 10^9 cell/ml) and incubated on a rotary shaker at room temperature. The following commercially available agrochemicals were employed: TBZ (0.02%); Teldor (0.015%); Mitos (0.025%); Rovral (0.02%); Switch (0.01%); and Imazalil (0.005%). Samples were aseptically withdrawn from the at 0 time, 24 h and 48 h of incubation. Samples were serially diluted and aliquots of 30 μl of the dilutions were plated on PDA. Plates were incubated at 25° C. for 3–4 days and colony forming units (CFU) were counted.

`C=CCOC(Cn1ccnc1)c1ccc(Cl)cc1Cl` (stereo not shown) [Imazalil, 1-(2-2,4-Dichlorophenyl)-2(2-propenyloxy-ethyl)-1Himidazol] was tested, and the “Effect of agrochemical on growth (CFU) of Mf” value was “slowed, but did not prevent, its growth”.
